The series in a line: solvent given as SMILES.

On to `CC(=O)OC[C@H]1O[C@@H](OCC#Cc2ccc(C3=C4C(C)=CC(/C=C/c5ccc(N(C)C)cc5)=[N+]4[B-](F)(F)n4c(/C=C/c5ccc(N(C)C)cc5)cc(C)c43)cc2)[C@H](OC(C)=O)C(OC(C)=O)[C@@H]1OC(C)=O` (stereo partly drawn), for which the absorption maximum (in CC#N) is 701 nm.
Turning to `CCN(CC)c1ccc2c(c1)oc(=O)c1c(=O)oc3cc([N+](=O)[O-])ccc3c12`, the absorption maximum by setting is: (in CS(C)=O) 498 nm; (in ClCCl) 494 nm.
For `Cc1nc2c(ccc3ccc(O)cc32)oc1=O`, for the setting “in c1ccccc1”, the absorption maximum is recorded as 370 nm.
Take `CC1CC=C(c2ccc(-c3cccs3)s2)CC1` (stereo not drawn): the absorption maximum reads like this: (in C1CCOC1) 341 nm; (in CC#N) 341 nm; (in CCCCCC) 341 nm; (in CCO) 336 nm; (in OCCOCCO) 341 nm; (in c1ccncc1) 343 nm.
Regarding `CN(C)c1ccc2c(C(=O)NCc3ccccc3)cc(C(=O)[O-])nc2c1`, the absorption maximum (in CCO) turned out to be 403 nm.
As to `Cn1cc(/C=C/C(=O)c2ccccc2)c2ccccc21`, the absorption maximum was 381.03 nm (in CC#N) and 391.71 nm (in CO).
Compound `Clc1ccc2cc3cccc[n+]3cc2c1` registered an absorption maximum (in O) of 400 nm.
Where the note is “in CC#N”, `CCCC(=O)c1c(OCOC)c(OCOC)c(C(=O)CCC)c2c1OCO2` gave an absorption maximum of 332 nm.
With `COc1ccc(-c2c(-c3ccc(C)cc3)c3n(c2-c2ccc(C)cc2)[B-](F)(F)[N+]2=C(c4ccc(C)cc4)C(/C=C/C(=O)OC4CC[C@@]5(C)C(=CC[C@H]6[C@@H]7CC[C@H]([C@H](C)CCCC(C)C)[C@@]7(C)CC[C@@H]65)C4)=C(c4ccc(C)cc4)C2=N3)cc1` (stereo partly drawn), for the setting “in ClC(Cl)Cl”, the absorption maximum is reported as 662 nm.
Turning to `CN1c2ccccc2C(O)(c2ccccc2)c2cc([N+](=O)[O-])ccc21` (stereo not drawn), the absorption maximum by setting is: (in C1CCOC1) 392.4 nm; (in CC#N) 396.9 nm; (in CCO) 393.7 nm; (in CO) 396 nm; (in CS(C)=O) 410 nm; (in Cc1ccccc1) 381.5 nm.
Regarding `F[B-]1(F)n2c(-c3cccs3)cc(-c3ccccc3)c2N=C2C(c3ccccc3)=CC(c3cccs3)=[N+]21`, the absorption maximum runs as follows: (in CC#N) 710 nm; (in ClCCl) 718 nm.
In turn, `C(=C\c1c2ccccc2cc2ccccc12)/c1c2ccccc2cc2ccccc12` registered an absorption maximum (in C1CCOC1) of 400 nm.
With `CN(C)c1ccc(C2=Nc3sc4cc(Cl)ccc4[n+]3[B-](F)(F)O2)cc1`, the absorption maximum is, setting by setting: (in C1CCOC1) 430 nm; (in CC#N) 426 nm; (in CC(C)=O) 430 nm; (in Cc1ccccc1) 427 nm; (in ClCCl) 430 nm.
`CN(C)c1ccc2[c](c1)[Ge]([CH3])([CH3])[C]1=CC(=[N+](C)C)C=CC1=C2` registered an absorption maximum (in O) of 621 nm.
As to `O=c1oc2ccccc2c2c1c(=O)oc1cc(O)cc(O)c12`, the absorption maximum runs as follows: (in CS(C)=O) 388 nm; (in ClCCl) 385 nm.
Turning to `CCCCC(CC)CN1C(=O)c2cccc3c(C#Cc4ccc(N(c5ccccc5)c5ccc(C#Cc6ccc7c8c(cccc68)C(=O)N(CC(CC)CCCC)C7=O)cc5)cc4)ccc(c23)C1=O` (stereo not drawn), the absorption maximum is, setting by setting: (in C1CCCCC1) 453 nm; (in C1CCOC1) 451 nm; (in CC#N) 456 nm; (in Cc1ccccc1) 452 nm; (in ClC(Cl)Cl) 466 nm.
Under “in C1CCOC1”, `O=C(c1ccc(C(=C(c2ccccc2)c2ccccc2)c2ccccc2)cc1)c1ccc(-n2c3ccccc3c3ccccc32)cc1` came in with an absorption maximum of 340 nm.
As for `CCCCC(CC)Cn1c2cc(C#N)ccc2c2cc(-c3ccc(N(c4ccccc4)c4ccccc4)cc3)c(C#N)cc21` (stereo not drawn), the absorption maximum (in ClCCl) stood at 398 nm.
`C1=C(c2ccccc2)B(c2ccccc2)Nc2c1ccc1ccccc21` yielded an absorption maximum (in C1CCCCC1) of 365 nm.
Take `CN(C)c1cc(F)c(C(=O)c2cc(F)c(N(C)C)cc2F)cc1F`: the absorption maximum (in CCO) is 358 nm.
As to `CCCCCCN(CCCCCC)c1ccc(C#Cc2c(F)c(F)c(F)c(F)c2F)cc1`, the absorption maximum runs as follows: (in CO) 357 nm; (in ClCCl) 363 nm.
`COc1ccc(C#Cc2ccc3nc4ccc(C#Cc5ccc(OC)cc5)cn4c(=O)c3c2)cc1` had an absorption maximum (in ClCCl) of 385 nm.
`F[B-]1(F)n2c(Cl)c(Cl)c(Br)c2C(Oc2ccccc2)=C2C(Br)=C(Cl)C(Cl)=[N+]21` came in with an absorption maximum (in ClCCl) of 532 nm.
For the setting “in C1CCOC1”, `c1ccc2c(c1)c1ccccc1n2-c1ccc2c(c1)c1ccccc1n2-c1cc2c3ccccc3n3c4ccccc4c(c1)c23` registered an absorption maximum of 344 nm.
For `CCCCCCCCC1(CCCCCCCC)c2cc(C#Cc3ccc(N(c4ccccc4)c4ccccc4)cc3)ccc2-c2ccc(C=O)cc21`, the absorption maximum by setting is: (in C1CCOC1) 378 nm; (in C1COCCO1) 381 nm; (in CC#N) 378 nm; (in CC(C)=O) 373 nm; (in CCOC(C)=O) 376 nm; (in CN(C)C=O) 380 nm. The absorption maximum by setting is: (in CS(C)=O) 381 nm; (in Cc1ccccc1) 388 nm; (in ClC(Cl)Cl) 386 nm; (in ClCCl) 384 nm.
In the case of `O=S(=O)([O-])c1ccc(O)c2ccccc12`, the absorption maximum runs as follows: (in C1COCCO1) 322 nm; (in CC#N) 322 nm; (in CC(C)O) 321 nm; (in CCCCO) 321 nm; (in CCO) 321 nm; (in CCOC(C)=O) 322 nm. The absorption maximum by setting is: (in CN(C)C=O) 324 nm; (in CO) 321 nm; (in CS(C)=O) 325 nm; (in O) 319 nm.
As to `COC(=O)C(NC(=O)OC(C)(C)C)c1ccc2oc(-c3ccc(C#N)cc3)nc2c1` (stereo not drawn), the absorption maximum is listed as 337 nm (in CC1CCCCC1), 333 nm (in CC#N) and 317 nm (in CO).
The compound `COc1ccc(/C=C/C2=CC(c3ccccc3)=[O+][B-](F)(F)O2)cc1` gave an absorption maximum (in ClCCl) of 444 nm.
Regarding `N#Cc1cc(N2c3ccccc3Oc3ccccc32)c(N2c3ccccc3Oc3ccccc32)cc1C#N`, the absorption maximum (in c1ccc2c(c1)c1ccccc1n2-c1ccc(-c2ccc(-n3c4ccccc4c4ccccc43)cc2)cc1) worked out at 540 nm.
The compound `CCCCCCNC(=O)c1sc(-c2ccc(-c3cc(-c4ccc(C(C)(C)C)cc4)c(C(=O)NCCCCCC)s3)s2)cc1-c1ccc(C(C)(C)C)cc1` gave an absorption maximum (in ClCCl) of 392 nm.
Still for that read-out and setting: under `C[Si]1(C)O[Si](C)(C)c2cc3nc4ccc(Cl)cc4c(-c4ccccc4)c3cc2[Si](C)(C)O1` stands 373 nm.
Take `COc1cc(-c2nc(-c3ccccc3)c(-c3ccccc3)[nH]2)c(OC)cc1/C=C/c1ccncc1`: the absorption maximum (in C1CCOC1) came out at 394 nm, the absorption maximum (in CC#N) was determined as 392 nm, the absorption maximum (in CN(C)C=O) was 397 nm and the absorption maximum (in Cc1ccccc1) is recorded as 398 nm.
As for `C(=C\c1nc(-c2ccccc2)c2ccccn12)/c1nc(-c2ccccc2)c2ccccn12`, the absorption maximum (in CC#N) is 438 nm.
In the case of `CCN(CC)c1ccc2cc(/C=C/C(O)=C/C(C)=O)c(=O)oc2c1`, the absorption maximum is, setting by setting: (in CC#N) 456 nm; (in CC(C)=O) 456 nm; (in CCOC(C)=O) 447 nm; (in CO) 458 nm; (in CS(C)=O) 470 nm; (in Cc1ccccc1) 447 nm. Also, the absorption maximum runs as follows: (in ClC(Cl)Cl) 455 nm; (in ClCCl) 456 nm.
Consider `c1cc2c3c(cccc3c1)C(N1CCOCCOCCOCCOCC1)=N2`, for which, under “in CC#N”, the absorption maximum is recorded as 427 nm.
`C/C(=C\c1ccccc1)c1nc2ccccc2o1`: the absorption maximum reads like this: (in C1CCCCC1) 315 nm; (in CO) 315 nm.
For `F[B-]1(F)C2=C(C=c3c4cccc5cccc(c54)n31)c1cccc3ccc[n+]2c13`, the absorption maximum (in CS(C)=O) came out at 622 nm.
Regarding `CCCCN1C(=O)C2=C(c3ccc(-c4ccc5c(c4)C(C)(C)c4ccccc4-5)cc3)[N-]C(=O)C2=C1c1ccc(-c2ccc3c(c2)C(C)(C)c2ccccc2-3)cc1`, the absorption maximum (in ClCCl) is 594 nm.
`COc1cc2cc(C#Cc3ccc(/C=C(\C#N)C(=O)O)cc3)c(=O)oc2cc1OC`: the absorption maximum (in CC#N) turned out to be 398 nm.
In the case of `N#CC(C#N)=Cc1ccc2c(c1)[nH]c1c3ccccc3ccc21`, the absorption maximum (in ClCCl) is on record as 436 nm.
Regarding `CC1=[N+]2C(=C(c3ccc(Br)cc3)c3ccc(C)n3[B-]2(F)F)C=C1c1cc2n(c1)[B-](F)(F)[N+]1=CC=CC1=C2c1c(C)cc(C)cc1C`, the absorption maximum (in C1CCCCC1) came to 598.5 nm and the absorption maximum (in CCOC(C)=O) was 601.5 nm.
Turning to `BrC1=CN2C[n+]3cc(Br)c4ccccc4c3N=C2c2ccccc21`, the absorption maximum (in CO) is 457 nm.
For `COc1ccc(-c2nc3c(c4c2-c2ccc(C#N)cc2CC4)-c2ccc(C#N)cc2CC3)cc1`, the absorption maximum reads like this: (in C1CCOC1) 332 nm; (in CC#N) 329 nm; (in CCCCCC) 336 nm; (in CCOC(C)=O) 324 nm; (in CO) 326 nm; (in CS(C)=O) 331 nm. In addition, the absorption maximum came out at 334 nm (in Cc1ccccc1) and 333 nm (in ClCCl).
For the compound `CO[Si](c1c2ccccc2cc2ccccc12)(c1c2ccccc2cc2ccccc12)c1c2ccccc2cc2ccccc12`, the absorption maximum (in ClC(Cl)Cl) was 401 nm.
Take `Nc1nc2ccc([N+](=O)[O-])cc2s1`: the absorption maximum is, setting by setting: (in CC#N) 355 nm; (in ClCCl) 346 nm.
Regarding `O=[N+]([O-])c1ccc([N+]2=Cc3ccc4c5c(ccc4c3O[B-]2(c2c(F)c(F)c(F)c(F)c2F)c2c(F)c(F)c(F)c(F)c2F)C=[N+](c2ccc([N+](=O)[O-])cc2)[B-](c2c(F)c(F)c(F)c(F)c2F)(c2c(F)c(F)c(F)c(F)c2F)O5)cc1`, the absorption maximum by setting is: (in C1CCOC1) 525 nm; (in CC#N) 513 nm; (in CC(C)=O) 515 nm; (in Cc1ccccc1) 549 nm; (in ClCCl) 553 nm.

The values are drawn from the Deep4Chem optical property database.
